Experimental data taken from patent publication US20230091047A1 (priority 2019, published 2023).
Where two headings read alike, the source gives them in different places.

How the values were obtained:
[1] = in vitro; format: cell-based; settings: human, HepG2 or HepG2.117 cells, mean value
Method: Cytotoxicity of the compounds was tested using HepG2 or HepG2.117 cells, incubated for 3 or 4 days in the presence of compounds. The viability of the cells was assessed using the PERKIN ELMER ATPlite Luminescence Assay System.”

[2] = system: HBV (HepG2.117 cell line, inducibly HBV producing); test: Anti-HBV activity: intracellular HBV DNA by real-time PCR in HepG2.117 cells after 3 days of treatment; format: cell-based, hepatitis B virus
Method: The anti HBV activity was measured using the HepG2.117 cell line, a stable, inducibly HBV producing cell line, which replicates HBV in the absence of doxycycline (Tet-off system). The HepG2 cell line is available from ATCCR under number HB-8065. Transfection of the HepG2 cell line can be as described in Sun and Nassal 2006 Journal of Hepatology 45 (2006) 636-645 “Stable HepG2- and Huh7-based human hepatoma cell lines for efficient regulated expression of infectious hepatitis B virus”.
For the antiviral assay, HBV replication was induced, followed by a treatment with serially diluted compound in 96-well plates. After 3 days of treatment, the antiviral activity was determined by quantification of intracellular HBV DNA using real-time PCR and an HBV specific primer set and probe.

[3] = 3-days incubation (unmarked values), ATPlite
[4] = HepG2.117 cells, 3 days of treatment, intracellular HBV DNA by real-time PCR; mean value; read-out: EC50 (μM, mean value)
[5] = Hepatitis B virus, HepG2.117, 72 h, HepG2.117 cells, 3 days of treatment, intracellular HBV DNA by real-time PCR; mean value; read-out: EC50 (μM, mean value)
[6] = Hepatitis B virus, HepG2.117, 72 h, HepG2.117 cells, intracellular HBV DNA by real-time PCR, 3 days of treatment, mean value; read-out: EC50 (μM, mean value)

Structure (SMILES)	CC50 at 3 days [1, 3]	EC50 [2, 5]	other results
CNC(=O)c1ccc(-n2c(NC(C)C)nc3c(c2=O)C[C@@H](C)N(C(=O)c2ccc(Cl)c(Cl)c2)C3)c(C(F)(F)F)c1 (atropisomer, axis not shown) [Compound C340a, 4-[(6R)-7-(3,4-dichlorobenzoyl)-6-methyl-4-oxo-2-[(propan-2-yl)amino]-5,6,7,8-tetrahydropyrido[3,4-d]pyrimidin-3(4H)-yl]-N-methyl-3-(trifluoromethyl)benzamide]	23.2 µM		EC50 [2, 4]: 0.1 µM
CNC(=O)c1ccc(-n2c(N[C@@H](C)c3cccnc3OC)nc3c(c2=O)C[C@@H](C)N(C(=O)c2ccc(Cl)c(Cl)c2)C3)cc1 (relative stereo) [Compound C286, 4-[(rt)-7-(3,4-dichlorobenzoyl)-2-{[(1*S)-1-(2-methoxypyridin-3-yl)ethyl]amino}-6-methyl-4-oxo-5,6,7,8-tetrahydropyrido[3,4-d]pyrimidin-3(4H)-yl]-N-methylbenzamide]	29 µM	0.12 µM	
COc1ccc(CNc2nc3c(c(=O)n2-c2ccccc2OC)C[C@@H](C)N(C(=O)c2ccc(Cl)c(Cl)c2)C3)cc1 (single isomer, unassigned) [Compound C36Aa]	> 50 µM	0.31 µM	
COc1ccc(CNc2nc3c(c(=O)n2-c2ccccc2OC)C[C@H](C)N(C(=O)c2ccc(Cl)c(Cl)c2)C3)cc1 (single isomer, unassigned) [Compound C36Ab]	> 50 µM		EC50 [2, 4]: 2.12 µM
COc1ccccc1-n1c(N[C@H](C)CO)nc2c(c1=O)CCN(C(=O)c1ccc(Cl)c(Cl)c1)C2 (single isomer, unassigned) [Compound C62A, 7-(3,4-dichlorobenzoyl)-2-{[(2*R)-1-hydroxypropan-2-yl]amino}-3-(2-methoxyphenyl)-5,6,7,8-tetrahydropyrido[3,4-d]pyrimidin-4(3H)-one]	> 50 µM	9.88 µM	
COc1ccccc1-n1c(N[C@@H](C)CO)nc2c(c1=O)CCN(C(=O)c1ccc(Cl)c(Cl)c1)C2 (single isomer, unassigned) [Compound C62Ba, 7-(3,4-dichlorobenzoyl)-2-{[(2*S)-1-hydroxypropan-2-yl]amino}-3-(2-methoxyphenyl)-5,6,7,8-tetrahydropyrido[3,4-d]pyrimidin-4(3H)-one]	> 50 µM	3.65 µM	
COc1ccccc1-n1c(N[C@H](C)C(F)(F)F)nc2c(c1=O)CCN(C(=O)c1ccc(Cl)c(Cl)c1)C2 (single isomer, unassigned) [Compound C101a]	36.9 µM		EC50 [2, 4]: 22.1 µM
COc1ccc(CNc2nc3c(c(=O)n2-c2ccc(S(C)(=O)=O)cc2)C[C@@H](c2ccc(F)cc2)N(C(=O)c2ccc(Cl)c(Cl)c2)C3)cc1 (single isomer, unassigned) [Compound C109A, (6*S)-7-(3,4-dichlorobenzoyl)-6-(4-fluorophenyl)-3-[4-(methanesulfonyl)phenyl]-2-{[(4-methoxyphenyl)methyl]amino}-5,6,7,8-tetrahydropyrido[3,4-d]pyrimidin-4(3H)-one]	> 50 µM	> 50 µM	
COc1ccc(CNc2nc3c(c(=O)n2-c2ccc(S(C)(=O)=O)cc2)C[C@H](c2ccc(F)cc2)N(C(=O)c2ccc(Cl)c(Cl)c2)C3)cc1 (single isomer, unassigned) [Compound C109B, (6*R)-7-(3,4-dichlorobenzoyl)-6-(4-fluorophenyl)-3-[4-(methanesulfonyl)phenyl]-2-{[(4-methoxyphenyl)methyl]amino}-5,6,7,8-tetrahydropyrido[3,4-d]pyrimidin-4(3H)-one]	> 50 µM		
CC(C)Nc1nc2c(c(=O)n1-c1ccc(S(C)(=O)=O)cc1)C[C@@H](c1ccc(F)cc1)N(C(=O)c1ccc(Cl)c(Cl)c1)C2 (single isomer, unassigned) [Compound C110A, (6*S)-7-(3,4-dichlorobenzoyl)-6-(4-fluorophenyl)-3-[4-(methanesulfonyl)phenyl]-2-[(propan-2-yl)amino]-5,6,7,8-tetrahydropyrido[3,4-d]pyrimidin-4(3H)-one]	> 50 µM	> 50 µM	
CC(C)Nc1nc2c(c(=O)n1-c1ccc(S(C)(=O)=O)cc1)C[C@H](c1ccc(F)cc1)N(C(=O)c1ccc(Cl)c(Cl)c1)C2 (single isomer, unassigned) [Compound C110B, (6*R)-7-(3,4-dichlorobenzoyl)-6-(4-fluorophenyl)-3-[4-(methanesulfonyl)phenyl]-2-[(propan-2-yl)amino]-5,6,7,8-tetrahydropyrido[3,4-d]pyrimidin-4(3H)-one]	> 50 µM	6.38 µM	
CC(C)Nc1nc2c(c(=O)n1-c1ccc(S(C)(=O)=O)cc1)[C@@H](C)CN(C(=O)c1ccc(Cl)c(Cl)c1)C2 (single isomer, unassigned) [Compound C154A, (*R)-7-(3,4-dichlorobenzoyl)-2-(isopropylamino)-5-methyl-3-(4-(methylsulfonyl)phenyl)-5,6,7,8-tetrahydropyrido[3,4-d]pyrimidin-4(3H)-one]	> 50 µM	1.32 µM	
CC(C)Nc1nc2c(c(=O)n1-c1ccc(S(C)(=O)=O)cc1)[C@H](C)CN(C(=O)c1ccc(Cl)c(Cl)c1)C2 (single isomer, unassigned) [Compound C154B, (*S)-7-(3,4-dichlorobenzoyl)-2-(isopropylamino)-5-methyl-3-(4-(methylsulfonyl)-phenyl)-5,6,7,8-tetrahydropyrido[3,4-d]pyrimidin-4(3H)-one]	> 50 µM	0.51 µM	
CC[C@@H]1Cc2c(nc(NC(C)C)n(-c3ccc(S(C)(=O)=O)cc3)c2=O)CN1C(=O)c1ccc(Cl)c(Cl)c1 (single isomer, unassigned) [Compound C158A, (6*R)-7-(3,4-dichlorobenzoyl)-6-ethyl-3-[4-(methanesulfonyl)phenyl]-2-[(propan-2-yl)amino]-5,6,7,8-tetrahydropyrido[3,4-d]pyrimidin-4(3H)-one]	> 50 µM	0.91 µM	
CC[C@H]1Cc2c(nc(NC(C)C)n(-c3ccc(S(C)(=O)=O)cc3)c2=O)CN1C(=O)c1ccc(Cl)c(Cl)c1 (single isomer, unassigned) [Compound C158B, (6*S)-7-(3,4-dichlorobenzoyl)-6-ethyl-3-[4-(methanesulfonyl)phenyl]-2-[(propan-2-yl)amino]-5,6,7,8-tetrahydropyrido[3,4-d]pyrimidin-4(3H)-one]	35.7 µM	2.13 µM	
CNC(=O)OCC[C@@H](Nc1nc2c(c(=O)n1-c1ccc(C(=O)NC)cc1)C[C@@H](C)N(C(=O)c1ccc(Cl)c(Cl)c1)C2)C1CC1 (single isomer, unassigned) [Compound C256, (3*R)-3-cyclopropyl-3-({(6R)-7-(3,4-dichlorobenzoyl)-6-methyl-3-[4-(methylcarbamoyl)phenyl]-4-oxo-3,4,5,6,7,8-hexahydropyrido[3,4-d]pyrimidin-2-yl}amino)propyl methylcarbamate]	> 50 µM	3.26 µM	
CNC(=O)OCC[C@H](Nc1nc2c(c(=O)n1-c1ccc(C(=O)NC)cc1)C[C@@H](C)N(C(=O)c1ccc(Cl)c(Cl)c1)C2)C1CC1 (single isomer, unassigned) [Compound C257, (3*S)-3-cyclopropyl-3-({(6R)-7-(3,4-dichlorobenzoyl)-6-methyl-3-[4-(methylcarbamoyl)phenyl]-4-oxo-3,4,5,6,7,8-hexahydropyrido[3,4-d]pyrimidin-2-yl}amino)propyl methylcarbamate]	> 50 µM	0.84 µM	
CNC(=O)c1ccc(-n2c(N[C@@H](C)c3ccc(C(F)(F)F)c(F)c3)nc3c(c2=O)C[C@@H](C)N(C(=O)c2ccc(Cl)c(Cl)c2)C3)cc1 (single isomer, unassigned) [Compound C659b]			EC50 [2, 6]: > 2.5 µM
CC(C)Nc1nc2c(c(=O)n1-c1ccc(S(C)(=O)=O)cc1)CCN(C(=O)c1cc3cc(Cl)ccc3[nH]1)C2 [Compound C357]	> 50 µM		
CC(C)Nc1nc2c(c(=O)n1-c1ccc(S(C)(=O)=O)cc1)CCN(C(=O)c1cc3ncccc3[nH]1)C2 [Compound C368]	> 50 µM		
CC(C)Nc1nc2c(c(=O)n1-c1ccc(S(C)(=O)=O)cc1)CCN(C(=O)c1cc3cnccc3[nH]1)C2 [Compound C369]	> 50 µM		
CNC(=O)c1ccc(-n2c(NCc3cnn(-c4ccccc4)n3)nc3c(c2=O)C[C@@H](C)N(C(=O)c2ccc(Cl)c(Cl)c2)C3)cc1 [Compound C464]			EC50 [2, 6]: 0.62 µM
CC(C)Nc1nc2c(c(=O)n1-c1ccc(C(=O)N3CCOCC3)cc1)C[C@@H](C)N(C(=O)c1ccc(Cl)c(C(F)(F)F)c1)C2 [Compound C649]			CC50 at 3 days ([1]; ATPlite, 3-days incubation (not marked with *)): > 50 µM
CNC(=O)c1ccc(-n2c(N[C@@H](C)c3ccc(C(F)(F)F)cc3)nc3c(c2=O)C[C@@H](C)N(C(=O)c2ccc(Cl)c(C(F)(F)F)c2)C3)cc1 [Compound C650]			EC50 [2, 6]: 0.05 µM
CNC(=O)c1ncc(-n2c(NC)nc3c(c2=O)C[C@@H](C)N(C(=O)c2ccc(Cl)c(C(F)(F)F)c2)C3)n1C [Compound C702]			CC50 at 3 days ([1]; 3-days incubation (unmarked values), ATPlite viability): > 50 µM
